Test results reported in US20140127228A1 (INDIANA UNIVERSITY SCHOOL OF MEDICINE, priority 2012, published 2014).
“Also recorded” adds a separate entry of the source.

Legend:
[1] = models of muscular dystrophy; cited from earlier work
[2] = system: 1205Lu melanoma cells; assay: melanoma bone metastasis in nude mice inoculated with 1205Lu melanoma cells; assay type: in vivo, mouse
Text: Halofuginone (Hfg) is a synthetic derivative of the plant alkaloid febrifugine, a traditional Chinese herbal medicine. Hfg increases expression of Smad7, an intracellular inhibitor of TGF-beta signaling. […] Hfg has been widely used as a veterinary agent with an excellent safety profile.
(§1) TGFbeta derived from bone fuels melanoma bone metastasis by inducing tumor secretion of pro-metastatic factors that act on bone cells to change the skeletal microenvironment. […] Hfg is active orally and by intraperitoneal injection, and it has completed Phase I clinical trials in cancer patients. It suppresses the phosphorylation and activation of Smad2 and Smad3 by inducting of Smad7. Overexpression of inhibitory Smad7 has been associated with a reduction on invasive capacity in vitro and anchorage-independent growth, and delays subcutaneous tumor growth in nude mice. The present inventors have shown that Smad7 overexpression decreased melanoma bone metastasis, thus is useful for treating and/or preventing muscle weakness and atrophy as well as other muscle related side effects in cancer patients.

[3] = system: human melanoma cells; assay: Hfg treatment of human melanoma cells; assay type: cell-based
Text: as §1

[4] = system: 1205Lu melanoma cells; conditions: mouse, in vivo; cited from earlier work
[5] = system: LuCaP 23.1 human prostate cancer osteoblastic xenograft; assay: LuCaP 23.1 osteoblastic prostate cancer xenograft in tibia of nude mice; assay type: in vivo, mouse
Text: (§2) These experiments utilize two murine models of prostate cancer bone metastases induced by PC-3 (osteolytic and cachectic; FIGS. 4A-K) or LuCAP23.1 (osteoblastic and not cachectic; FIGS. 5A-B).
(§3) For all mouse experiments, N=15 for each group of mice for tumors inoculated in the left cardiac ventricle (PC-3) or intratibially (LuCAP23.1) based on power analysis detailed below. Male nude mice are housed in laminar flow isolated hoods with water supplemented with vitamin K and autoclaved mouse chow provided ad libitum. Cells are introduced into mice at 4 wks of age. Animals are anesthetized with ketamine/xylazine and positioned ventral side up.
Four-week old, male nude mice were inoculated into the tibia with LuCaP 23.1 human prostate cancer osteoblastic xenograft (n=14-15/group).

[6] = system: PC-3 bone metastases; assay: PC-3 prostate cancer bone metastases in mice; assay type: in vivo, mouse; conditions: 50 mg/kg starting 2 days prior to inoculation
Text: as §2, §3
Multiple modalities of bone imaging including X-ray and μCT are used to longitudinally monitor the bone lesions and confirmed by histology and quantitative histomorphometry as previously described (Dunn et al., 2009; Guise et al., 1996b; Yin et al., 1999). Muscle mass are followed serially in vivo using the Piximus II system (Wiren et al., 2011) and microCT (Manske et al., 2011).

[7] = system: mouse mammary carcinomas; conditions: cited from earlier work
[8] = system: SERCA; assay: SERCA oxidation in EDL muscle lysates (immunoprecipitation/immunoblot); assay type: in vivo, mouse; conditions: prostate cancer mice
Text: (§4) In embodiment A is shown that body weight is decreased in nude mice inoculated with PC-3 human prostate cancer cells and that osteolytic lesions are present in the tibia and histology of the femur, as shown in X-ray images. In embodiments B and C are shown decreased skeletal muscle cross-sectional area in tumor-bearing mice determined by Micro-CT as described herein. In embodiments D and E are shown decreased body weight (D) and decreased Grip strength (E) in PC-3 tumor bearing mice. […] In embodiment J is shown that RyR1 is oxidized and there is decreased calstabin 1 in the RyR complex from, skeletal muscle (EDL) from mice with metastatic prostate cancer. RyR1 was immunoprecipitated from 250 μg of EDL homogenate using an anti-RyR antibody (4 μg 5029 Ab), and the immunoprecipitates were separated on SDS-PAGE gels (6% for RyR, 15% for Calstabin). All immunoblots were developed and quantified with the Odyssey system (LI-COR, Inc., Lincoln, Nebr.) using IR labeled anti-mouse and anti-Rabbit IgG (1:10,000 dilution) secondary antibodies. Immunoblots developed using anti-RyR (clone 34C, 1:5,000), anti-Cys-NO (1:1000, Sigma, St. Louis. MO), anti-DNP (to determine RyR1 oxidation. 1:250), and anticalstabin (1:2500). […] Quantification of immunoblots showing the relative nitrotyrosine/SERCA for each group of EDLs tested. *p<0.01 compared to non-cancer controls as analyzed by ANOVA. […]

[9] = system: EDL muscle of mice with PC-3 prostate cancer bone metastases; assay: EDL muscle specific force production in mice with PC-3 prostate cancer bone metastases; assay type: in vivo, mouse; conditions: hypogonadal mice with PC-3 prostate cancer metastatic to bone
Text: as §4, with “RyR1 was immunoprecipitated from 250 μg of EDL homogenate using an anti-RyR antibody (4 μg 5029 Ab), and the immunoprecipitates were separated on SDS-PAGE gels (6% for RyR, 15% for Calstabin).” left out, “antibodies.” for “antibodies. Immunoblots developed using anti-RyR (clone 34C, 1:5,000), anti-Cys-NO (1:1000, Sigma, St. Louis. MO), anti-DNP (to determine RyR1 oxidation. 1:250), and anticalstabin (1:2500).”
Extensor digitorum longus (EDL) muscles are dissected from the hind limbs using micro dissection scissors and forceps. […] To quantify the specific force, the absolute force is normalized to the muscle cross-sectional area, calculated as the muscle weight divided by the length and a muscle density constant of […] as previously described (Yamada et al., 2009).

[10] = system: RyR1; assay: RyR1 oxidation, nitrosylation and calstabin 1 depletion in EDL (immunoprecipitation/immunoblot); assay type: in vivo, mouse; conditions: mice with PC-3 prostate cancer metastatic to bone
Text: as §4, with “RyR1 was immunoprecipitated from 250 μg of EDL homogenate using an anti-RyR antibody (4 μg 5029 Ab), and the immunoprecipitates were separated on SDS-PAGE gels (6% for RyR, 15% for Calstabin).” left out, “antibodies.” for “antibodies. Immunoblots developed using anti-RyR (clone 34C, 1:5,000), anti-Cys-NO (1:1000, Sigma, St. Louis. MO), anti-DNP (to determine RyR1 oxidation. 1:250), and anticalstabin (1:2500).”
Quantification of RyR1 skeletal channel nitrosylation, oxidation and phosphorylation by protein kinase A (PKA) are performed as described (Bellinger et al., 2009; Bellinger et al., 2008b).
Quantification of depletion of the channel stabilizing subunit calstabin 1 (FKBP12) from skeletal RyR1 by immunoprecipitation techniques are performed as described (Marx et al., 2000). […]

[11] = patients with prostate cancer bone metastases; cited from earlier work
[12] = 50 or 150 mg/kg/day po from 12 weeks post tumor inoculation

For `O=C(CC1NCCCC1O)Cn1cnc2cc(Br)c(Cl)cc2c1=O` (stereo not shown) [Halofuginone], the muscle function [1] is listed as “improve muscle function”, the “osteolysis assessed by radiography” value ([2]; mice with established bone metastasis, vs placebo) is listed as “significantly less osteolysis” and the “melanoma metastasis to the brain” value ([2]; mouse, in vivo) is listed as “reduce melanoma metastasis to the brain”. For the same molecule, the bone metastasis ([2]; preventive protocol, nude mice inoculated with 1205Lu melanoma cells) was “inhibited bone metastasis”, the “TGFbeta-induced SMAD-driven transcription” value [3] was “inhibited” and the cell apoptosis [3] was “increased”. The cell proliferation [3] was “inhibited”, the “expression of TGFbeta target genes (PTHrP, CTGF, CXCR4, IL11)” value [3] was “reducing expression” and the “phosphorylation of SMAD proteins in response to TGFbeta” value [3] was “inhibited”. The “development and progression of bone metastasis caused by melanoma cells” value [4] was “decreases development and progression of bone metastasis”.

For `Fc1ccc(Cl)cc1-c1nc(Nc2ccncc2)c2nccnc2n1` [SD-208], the bone formation [5, 12] was “does not increase”, the tumor growth [5, 12] was “does not increase” and the LuCAP23.1 bone metastases ([5]; mouse, in vivo) was “not effective”. For the same molecule, the “PC-3 bone metastases (X-ray, osteolytic lesion area, survival)” value [6] was “highly effective; also recorded: prevents PC-3 bone metastases”, the “tumor growth in vivo” value [7] was “inhibit” and the “oxidation of SERCA” value [8] was “inhibited oxidation of SERCA”. For the same molecule, the “muscle (EDL) specific force production” value [9] was “improved muscle specific force production” and the “oxidation/nitrosylation/calstabin 1 depletion of skeletal muscle RyR1” value [10] was “prevented oxidation/nitrosylation/calstabin 1 depletion from RyR1; also recorded: prevented oxidation of RyR1”.

For denosumab: inhibitor of bone resorption, the skeletal morbidity [11] is listed as “reduce skeletal morbidity”.
